Data: US9364469B1, “Identification of a new AMPK activator for treatment of lung cancer” (Macau University of Science and Technology, priority 2015, dated 2016)

How the values were obtained:
[1] = system: AMPK; experiment: Western blot analysis of AMPK phosphorylation; assay type: cell-based; settings: H1975 cells, 24 hours
Experimental: (§1) After incubating H1975 cells with D561-0775 for 24 hours, H1975 cells were harvested and washed with cold 1×PBS. Then, cells were lysed with ice-cold RIPA lysis buffer with protease and phosphatase inhibitors added to extract the cell protein extraction. The supernatants were collected by centrifugation at 12,000 g, for 5 minutes. The quantitation of total protein extraction was measured by Bio-Rad DCTM protein assay kit (Bio-Rad, Philadelphia, Pa., USA). Then 30 μg of protein was loaded and electrophoretically separated on 8% SDS-PAGE gel and then transferred to Nitrocellulose (NC) membrane. Membranes were blocked with 5% non-fat milk and […] containing 0.1% Tween-20 (TBST) for 1 hour at room temperature. After 1 hour, membranes were incubated with primary anti-bodies (1:1000 dilution) against GAPDH, total/phosphor-ACC, total-AMPK, and (1:500 dilution) against phosphor-AMPK, at 4° C. with gently shaking overnight. Membranes were washed with TBST for 3 times (5 minutes/time), and incubated with secondary fluorescent antibody (1:10000 dilutions) for 1 hour at room temperature. After rewashing the membranes with TBST for 3 times (15 minutes/time), the stripes were visualized by LI-COR Odessy scanner (Belfast, Me., USA).

[2] = system: H1975 cells; experiment: MTT cytotoxicity assay; assay type: cell-based; settings: 72 h treatment, read-out: IC50 (cell proliferation, MTT)
Experimental: H1975 was purchased from ATCC (American type culture collection) and was cultivated with RPMI 1640 medium supplement with 10% fetal bovine serum (Gibco, Big Cabin, Oklahoma, Me., USA), 100 U/mL, penicillin and 100 μg/mL and streptomycin (Gibco, Big Cabin, Oklahoma, Me., USA). The cells were cultured in incubator with 5% CO2 at 37° C.
Cells were seeded in a 96-well microplate with 5000 cells/well confluence, and put into the incubator overnight for cell adhesion. Different concentrations of the drug D561-0775 were added with Dimethyl sulfoxide (DMSO) as vehicle control. The microplates were incubated for another 72 hours. The whole experiment was repeated in triplicate. 10 μL of MTT (5 mg/mL) solution was added to each well. The plate was placed back into the incubator for 4 hours. After that, 100 μL of resolved solution (10% SDS and 0.1 mM HCL) was added to each well. Before dissolving the formazan crystals, the microplate was put back into the incubator for another 4 hours. The absorbance of the plate was measured at 570 nm with reference at 650 nm by a microplate reader (Tecan, Morrisville, N.C., USA). Cell viability was calculated by percentages of the absorbance of the treatment group divided by the absorbance of untreated group. At least three independent experiments were performed for data analysis and presentation.

[3] = system: ACC; experiment: Western blot analysis of ACC phosphorylation; assay type: cell-based; settings: H1975 cells, 24 hours
Experimental: as §1

[4] = system: AMPK kinase; experiment: AMPK enzyme activity assay (CycLex AMPK Kinase Assay Kit); assay type: biochemical; settings: indicated concentrations, n=3, ** p<0.005, ***p<0.001
From the text: The CycLex AMPK Kinase Assay Kit (CycLex Co., Ltd., Nagano, Japan) was used to detect the activation of AMPK by D561-0775. AMP was used as positive control, compound c was used as AMPK inhibitor, and AMPK kinase was used for representing the basal level.

[5] = system: H1975 cells; experiment: Apoptosis assay (Annexin V/PI flow cytometry, morphology observation); assay type: cell-based; settings: 48 h
Experimental: H1975 cells (1×10^5 cells/well) were seeded in a 6-well plate for 24 hours, and treated with the indicated concentrations of D561-0775 for an additional 48 hours at 37° C. After 48 hours, the cells were washed by ice-cold 1×PBS once and harvested by trypsination. Then cells were centrifuged, collected and re-suspended in ice-cold 1×PBS. After removing the supernatants, cell pellets were re-suspended in 100 μL 1× Annexin-binding buffer. The cells were then double-stained with Annexin-V FITC and PI (100 μg/mL) of 2 μL respectively for 15 min at room temperature in dark. After that, 300 μL 1× Annexin-binding buffer was added. Apoptotic cells were quantitatively counted by a BD Aria III Flow Cytometer (BD Biosciences, San Jose, Calif., USA)

[6] = 20 μM treatment group, **p<0.01, n=3

AMPK kinase activity (fold of AMPK kinase alone group) [4]: enhanced in a dose-dependent manner
Compound: N#Cc1nc(-c2ccc(COc3ccc(Br)cc3)o2)oc1NCc1cccnc1 [D561-0775]
phosphorylation of AMPK [1]: activated phosphorylation of both AMPK and ACC in a dose-dependent manner
IC50 [2]: 9.59 ± 1.73 µM
phosphorylation of ACC [3]: activated phosphorylation of both AMPK and ACC in a dose-dependent manner
percentage of apoptotic cells vs control group [5, 6]: significant higher percentage of apoptotic cells
percentage of viable cells vs control group [5, 6]: lower percentage of viable cells
apoptosis induction (flow cytometry) ([5]; Annexin V/PI): induced significant level of apoptosis in a dose-dependent manner
cell morphology ([5]; morphology observation): floated and rounded-up starting at 20 μM
